Laboratory results: patent publication US10689705B2, “FGFR3 fusion gene and pharmaceutical drug targeting same” (Chugai Seiyaku Kabushiki Kaisha, priority 2012, dated 2020)

Legend:
[1] = tested on: BFTC-905; test: Cell proliferation inhibition, WST-8, four days (Example 3); type: cell-based; conditions: Homo sapiens, BFTC-905, 96 h, wild-type FGFR, no fusion
Protocol: (§1) IC50 was calculated using the least-square method.

[2] = tested on: HT-1376; test: as above; type: cell-based; conditions: Homo sapiens, HT-1376, 96 h, does not express FGFR3
Protocol: as §1

[3] = tested on: RT112/84; test: as above; type: cell-based; conditions: Homo sapiens, RT112/84, 96 h, fusion polypeptide expressing
Protocol: as §1

[4] = tested on: RT4; test: as above; type: cell-based; conditions: Homo sapiens, RT-4, 96 h, fusion polypeptide expressing
Protocol: as §1

[5] = tested on: SW780; test: as above; type: cell-based; conditions: Homo sapiens, SW780, 96 h, fusion polypeptide expressing
Protocol: as §1

[6] = tested on: UM-UC-14; test: as above; type: cell-based; conditions: Homo sapiens, UMUC14, 96 h, mutated type FGFR, no fusion
Protocol: as §1

[7] = tested on: human bladder cancer cell line RT112/84; test: Antitumor effect in cancer-bearing nude mice (FGFR3-TACC3 fusion); type: in vivo, BALB/c nude mice; conditions: RT112/84 xenograft
Protocol: Nude mice were quarantined for about one week before use, and subjected to subcutaneous transplantation of about 1×10^7 RT112/84 cells in the inguinal region. When the tumor size reached about 200 mm^3, the mice were used in experiments.
Antitumor effect was determined by comparing the tumor growth during 11 days after the first day of administration (Day 10 when the first day of administration is set at Day 0) with that of the control group. Tumor growth inhibitory effect(TGI)=(1−[Average tumor growth level of treated group]/[Average tumor growth level of control group])×100(%)

[8] = tested on: human bladder cancer cell line SW780; test: Antitumor effect in cancer-bearing nude mice (FGFR3-BAIAP2L1 fusion); type: in vivo, BALB/c nude mice; conditions: SW780 xenograft
Protocol: Nude mice were quarantined for about one week before use, and subjected to subcutaneous transplantation of 5×10^6 SW780 cells in the inguinal region. When the tumor size reached about 200 mm^3, the mice were used in experiments. […] Antitumor effect was determined by comparing the tumor growth during 11 days after the first day of administration (Day 10 when the first day of administration is set at Day 0) with that of the control group. Tumor growth inhibitory effect(TGI)=(1−[Average tumor growth level of treated group]/[Average tumor growth level of control group])×100(%)

[9] = tested on: RAT-2 cells that stably express FGFR3-BAIAP2L1; conditions: orally once daily from seven days after planting; concentration-dependent (FIG. 13)
[10] = tested on: colon cancer-derived cell line HCT116; test: cells; conditions: Homo sapiens, HCT-116, 96 h, read-out: HCT116 (CRC) IC50;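 also: proliferation measured with WST-8, IC50 derived by least-squares fitting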
[11] = tested on: bladder cancer-derived cell line RT-4 which expresses an FGFR3-TACC3 fusion polypeptide; test: tissue or blood; conditions: Homo sapiens, 96 h, read-out: RT-4 (Bladder) IC50

SMILES	IC50 [2] [nM]	IC50 [5] [nM]	IC50 [1] [nM]	IC50 [3] [nM]	IC50 [4] [nM]	IC50 [6] [nM]	TGI AFTER 11 DAYS ([7]; 25 mg/kg orally once a day) [%]	TGI AFTER 11 DAYS ([7]; 50 mg/kg orally once a day) [%]	TGI AFTER 11 DAYS ([7]; 100 mg/kg orally once a day) [%]	TGI AFTER 11 DAYS ([8]; 25 mg/kg orally once a day) [%]	TGI AFTER 11 DAYS ([8]; 50 mg/kg orally once a day) [%]	TGI AFTER 11 DAYS ([8]; 100 mg/kg orally once a day) [%]	tumor enlargement enhanced by the FGFR3-BAIAP2L1 fusion polypeptide [9]	IC50 [10] [nM]	IC50 [11] [nM]
Cc1nc2ccc(-n3ncc(C(=O)c4cc5ccccc5[nH]4)c3N)cc2[nH]1 [COMPOUND A]	> 10000	120	> 10000	18	350	110	61	86	125	47	79	111	significantly suppressed		
CCN1CCN(c2ccc(Nc3cc(N(C)C(=O)Nc4c(Cl)c(OC)cc(OC)c4Cl)ncn3)cc2)CC1 [COMPOUND D, BGJ-398]	10000	1100	> 20000	18	230	17									
Cc1nc2ccc(-n3ncc(C(=O)c4cc5ccccc5[nH]4)c3N)cc2[nH]1 [Compound 49]														13000	350

Continued, in another order:

IC50 [2] [nM]	IC50 [5] [nM]	SMILES	IC50 [1] [nM]	IC50 [3] [nM]	IC50 [4] [nM]	IC50 [6] [nM]	TGI AFTER 11 DAYS ([7]; 25 mg/kg orally once a day) [%]	TGI AFTER 11 DAYS ([7]; 50 mg/kg orally once a day) [%]	TGI AFTER 11 DAYS ([7]; 100 mg/kg orally once a day) [%]	TGI AFTER 11 DAYS ([8]; 25 mg/kg orally once a day) [%]	TGI AFTER 11 DAYS ([8]; 50 mg/kg orally once a day) [%]	TGI AFTER 11 DAYS ([8]; 100 mg/kg orally once a day) [%]	tumor enlargement enhanced by the FGFR3-BAIAP2L1 fusion polypeptide [9]	IC50 [10] [nM]	IC50 [11] [nM]
6700	160	COc1cc(CCc2cc(NC(=O)c3ccc(N4C[C@@H](C)N[C@@H](C)C4)cc3)[nH]n2)cc(OC)c1 [COMPOUND C, AZD-4547]	11000	17	250	16									
1100	530	COc1cc2c(Oc3ccc4[nH]c(C)cc4c3F)ncnc2cc1OCCCN1CCCC1 [COMPOUND E, cediranib]	2500	150	240	66									
620	570	CN1CCN(c2ccc3nc(-c4c(N)c5c(F)cccc5[nH]c4=O)[nH]c3c2)CC1 [COMPOUND F, dovitinib]	2800	130	250	75									
